“Also recorded” adds a separate entry of the source.
Experiment: Furimazine release by hydrolysis at different pH, HPLC at 262 nm
Type: physicochemical
Experimental: The effect of pH on the hydrolysis of the disclosed compounds may be useful for high-throughput screening (HTS). The percent furimazine released in 1 mM of PBI-5455 solutions with different pH values ranging from 5.9 to 7.6 were detected over time using HPLC at 262 nm. […] These compounds can be used to support HTS operation methods to enhance the initial brightness by adjusting pH or adding an appropriate nucleophile.
As shown in Example 23, PBI-5455 is stable in slightly acidic buffer for 10 hrs. […] For BRET applications to detect protein-protein and/or ligand-protein interactions, if it is a one-time point reading, the concentration in media could be higher than 100-200 μM.

Question: With `CC(=O)NC(CC(=O)O)C(=O)NC(CC(=O)O)C(=O)NC(CC(=O)O)C(=O)N(C)CCN(CCCN1CCOCC1)C(=O)Oc1c(Cc2ccco2)nc2c(Cc3ccccc3)nc(-c3ccccc3)cn12` (centres unmarked) [PBI-5455, Ac-DDD-MOP-C2-FRZ] as the compound, how does the “release of furimazine by hydrolysis” value (1 mM solutions, pH values ranging from 5.9 to 7.6, over time, HPLC at 262 nm (FIG. 14)) read?
Answer: pH dependent; also recorded: The higher the pH, the faster the release

Question: And the “stable in buffer (time)” value (slightly acidic buffer)?
Answer: 10 h
